Data set [1] addresses T1, Cytochrome P450 11B2, mitochondrial (Homo sapiens, UniProt P19099).
T1 sequence (P19099 whole entry): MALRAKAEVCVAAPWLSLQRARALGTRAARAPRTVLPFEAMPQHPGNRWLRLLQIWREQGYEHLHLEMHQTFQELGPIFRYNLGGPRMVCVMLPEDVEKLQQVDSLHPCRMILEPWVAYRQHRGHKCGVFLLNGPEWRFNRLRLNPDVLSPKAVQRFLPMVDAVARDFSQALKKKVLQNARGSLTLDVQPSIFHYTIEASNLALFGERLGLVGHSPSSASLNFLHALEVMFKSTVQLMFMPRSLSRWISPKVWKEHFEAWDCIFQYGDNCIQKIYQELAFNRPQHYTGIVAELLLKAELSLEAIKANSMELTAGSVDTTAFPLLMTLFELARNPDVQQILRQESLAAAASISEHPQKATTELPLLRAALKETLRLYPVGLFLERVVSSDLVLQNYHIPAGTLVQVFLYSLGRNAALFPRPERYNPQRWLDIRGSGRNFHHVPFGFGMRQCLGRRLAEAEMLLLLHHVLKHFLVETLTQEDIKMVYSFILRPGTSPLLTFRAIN
The experiment in a line: Inhibition of human CYP11B2 expressed in hamster V79MZ cells using [1,2-3H]11-deoxycorticosterone as substrate preincubated for 60 mins prior to substrate addition measured after 50 mins by HPLC analysis.

The target in data set [2] is T2, Cytochrome P450 11B1, mitochondrial (Homo sapiens, UniProt P15538).
T2 sequence (P15538 whole entry): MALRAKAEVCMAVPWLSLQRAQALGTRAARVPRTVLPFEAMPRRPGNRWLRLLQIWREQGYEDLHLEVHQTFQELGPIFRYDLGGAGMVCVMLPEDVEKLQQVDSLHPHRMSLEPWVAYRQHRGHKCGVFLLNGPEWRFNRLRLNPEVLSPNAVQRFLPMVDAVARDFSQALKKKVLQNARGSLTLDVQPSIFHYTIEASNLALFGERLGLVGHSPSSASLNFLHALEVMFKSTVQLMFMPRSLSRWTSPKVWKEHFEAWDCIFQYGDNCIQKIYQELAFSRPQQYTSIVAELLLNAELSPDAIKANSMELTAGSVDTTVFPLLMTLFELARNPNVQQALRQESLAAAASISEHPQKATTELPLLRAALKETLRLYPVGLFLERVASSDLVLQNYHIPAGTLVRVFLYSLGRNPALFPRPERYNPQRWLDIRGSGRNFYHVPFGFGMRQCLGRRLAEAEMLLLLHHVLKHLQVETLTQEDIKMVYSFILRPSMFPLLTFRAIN
Briefly: Inhibition of human CYP11B1 expressed in hamster V79MZ cells using [1,2-3H]11-deoxycorticosterone as substrate preincubated for 60 mins prior to substrate addition measured after 25 mins by HPLC analysis.

`c1ccc2c(-c3ccc(Cn4ccnc4)cn3)cccc2c1`: the values for the IC50 in data set [1] and in data set [2] were 2080 nM and 42 nM, respectively.

Take `c1csc(-c2ncccc2Cn2ccnc2)c1`: the IC50 in data set [1] was determined as 251 nM; in data set [2], 16 nM.

Regarding `c1ccc2c(-c3ccc(Cn4ccnc4)cn3)csc2c1`, the IC50 in data set [1] was determined as 1160 nM; in data set [2], 40 nM.

Consider `Oc1ccc(-c2ccc(Cn3ccnc3)cn2)cc1F`, for which the values for the IC50 in data set [1] and in data set [2] were 237 nM and 17 nM, respectively.

On to `Brc1ncccc1Cn1ccnc1`, for which the results for the IC50 in data set [1] and in data set [2] were 911 nM and 61 nM, respectively.

On to `Nc1ccccc1-c1ccc(Cn2ccnc2)cn1`, for which the IC50 in data set [1] was found to be 2110 nM; in data set [2], 101 nM.

With `Nc1cccc(-c2ccc(Cn3ccnc3)cn2)c1`, the results for the IC50 in data set [1] and in data set [2] were 3410 nM and 110 nM, respectively.

Consider `Nc1ccc(-c2ccc(Cn3ccnc3)cn2)cc1`, for which the figures for the IC50 in data set [1] and in data set [2] were 528 nM and 106 nM, respectively.

Source of the values: BindingDB's records for doi:10.1021/ml4000595 (Temple University, 2013).
